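Where inhibition never reached the appropriate level, the endpoint shown equals the highest concentration tested. Otherwise, values were interpolated linearly from a five-concentration, 48-hour dose response in 96-well plates. The concentration for full growth arrest is given as TGI.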
Experiments:
Assay in all cases: NCI tumour cell line growth inhibition, 48 h
SF-539 CNS = system: SF-539 CNS
MDA-N = system: MDA-N
SW-620 colon = system: SW-620 colon
UACC-257 melanoma = system: UACC-257 melanoma
MCF7 breast = system: MCF7 breast
RPMI-8226 leukemia = system: RPMI-8226 leukemia
M14 melanoma = system: M14 melanoma
NCI-H522 lung = system: NCI-H522 lung
SR leukemia = system: SR leukemia
RXF 393 renal = system: RXF 393 renal
OVCAR-5 ovarian = system: OVCAR-5 ovarian
LOX IMVI melanoma = system: LOX IMVI melanoma
NCI-H226 lung = system: NCI-H226 lung
MDA-MB-435 = system: MDA-MB-435
TK-10 renal = system: TK-10 renal
PC-3 prostate = system: PC-3 prostate
UACC-62 melanoma = system: UACC-62 melanoma

COC(=O)[C@@H]1[C@H](OC(C)=O)CCC2[C@@]3(C[C@@H](c4ccoc4)O[C@@H]3OC)[C@H](C)CC[C@]21C(=O)OC (stereo partly specified)
TGI (SF-539 CNS): > 25 µM
TGI (MDA-N): > 25 µM
TGI (SW-620 colon): > 25 µM
TGI (UACC-257 melanoma): > 25 µM
TGI (MCF7 breast): > 25 µM
TGI (RPMI-8226 leukemia): > 25 µM
TGI (M14 melanoma): > 25 µM
TGI (NCI-H522 lung): > 25 µM
TGI (SR leukemia): > 25 µM
TGI (RXF 393 renal): > 25 µM
TGI (OVCAR-5 ovarian): > 25 µM
TGI (LOX IMVI melanoma): > 25 µM
TGI (NCI-H226 lung): > 25 µM
TGI (MDA-MB-435): > 25 µM
TGI (TK-10 renal): > 25 µM
TGI (PC-3 prostate): > 25 µM
TGI (UACC-62 melanoma): > 25 µM

CCN1C(=O)c2cc(OC)c(OC)cc2C(=O)C12OC(=O)c1cc3c(cc12)OCO3 (stereo unspecified)
TGI (SF-539 CNS): > 100 µM
TGI (MDA-N): > 100 µM
TGI (SW-620 colon): > 100 µM
TGI (UACC-257 melanoma): > 100 µM
TGI (MCF7 breast): > 100 µM
TGI (RPMI-8226 leukemia): > 100 µM
TGI (M14 melanoma): > 100 µM
TGI (NCI-H522 lung): > 100 µM
TGI (SR leukemia): > 100 µM
TGI (RXF 393 renal): 72.9 µM
TGI (OVCAR-5 ovarian): > 100 µM
TGI (LOX IMVI melanoma): > 100 µM
TGI (NCI-H226 lung): > 100 µM
TGI (MDA-MB-435): > 100 µM
TGI (TK-10 renal): > 100 µM
TGI (PC-3 prostate): > 100 µM
TGI (UACC-62 melanoma): > 100 µM

O=C1C=CC2(C=C1)O[C@H](Cc1ccccc1)[C@@H](Cc1ccccc1)O2
TGI (SF-539 CNS): 1.02 µM
TGI (MDA-N): 0.66 µM
TGI (SW-620 colon): 0.254 µM
TGI (UACC-257 melanoma): 4.51 µM
TGI (MCF7 breast): 1.51 µM
TGI (RPMI-8226 leukemia): 0.499 µM
TGI (M14 melanoma): 2.15 µM
TGI (NCI-H522 lung): 0.42 µM
TGI (SR leukemia): 3.26 µM
TGI (RXF 393 renal): 0.974 µM
TGI (OVCAR-5 ovarian): 1.34 µM
TGI (LOX IMVI melanoma): 0.824 µM
TGI (NCI-H226 lung): 0.902 µM
TGI (MDA-MB-435): 3.56 µM
TGI (TK-10 renal): 1.66 µM
TGI (PC-3 prostate): 3.34 µM
TGI (UACC-62 melanoma): 4.05 µM

CC1(/C=C/CCSc2ccccc2)CC(=O)C2CC1C2(C)C (stereo unspecified)
TGI (SF-539 CNS): 31.5 µM
TGI (MDA-N): > 100 µM
TGI (SW-620 colon): > 100 µM
TGI (UACC-257 melanoma): > 73.6 µM
TGI (MCF7 breast): > 100 µM
TGI (RPMI-8226 leukemia): 18.8 µM
TGI (M14 melanoma): > 100 µM
TGI (NCI-H522 lung): 52.3 µM
TGI (SR leukemia): 16.9 µM
TGI (RXF 393 renal): > 100 µM
TGI (OVCAR-5 ovarian): > 100 µM
TGI (LOX IMVI melanoma): 43.9 µM
TGI (NCI-H226 lung): > 100 µM
TGI (MDA-MB-435): > 87.6 µM
TGI (TK-10 renal): > 70.1 µM
TGI (PC-3 prostate): > 100 µM
TGI (UACC-62 melanoma): > 60 µM

COc1cc2c3c(c1)CCCN3CCC2
TGI (SF-539 CNS): > 10 µM
TGI (MDA-N): > 10 µM
TGI (SW-620 colon): > 10 µM
TGI (UACC-257 melanoma): > 10 µM
TGI (MCF7 breast): > 10 µM
TGI (RPMI-8226 leukemia): > 10 µM
TGI (M14 melanoma): > 10 µM
TGI (NCI-H522 lung): > 10 µM
TGI (SR leukemia): > 10 µM
TGI (RXF 393 renal): > 10 µM
TGI (LOX IMVI melanoma): > 10 µM
TGI (NCI-H226 lung): > 10 µM
TGI (MDA-MB-435): > 10 µM
TGI (TK-10 renal): > 10 µM
TGI (PC-3 prostate): > 10 µM
TGI (UACC-62 melanoma): > 10 µM

Cc1cc(C)c(-n2[nH]c(=O)n(C)c2=O)c(C)c1
TGI (SF-539 CNS): > 100 µM
TGI (MDA-N): > 100 µM
TGI (SW-620 colon): > 100 µM
TGI (UACC-257 melanoma): > 100 µM
TGI (MCF7 breast): > 100 µM
TGI (RPMI-8226 leukemia): > 100 µM
TGI (M14 melanoma): > 100 µM
TGI (NCI-H522 lung): > 100 µM
TGI (SR leukemia): > 100 µM
TGI (RXF 393 renal): > 100 µM
TGI (OVCAR-5 ovarian): > 100 µM
TGI (LOX IMVI melanoma): > 100 µM
TGI (NCI-H226 lung): > 100 µM
TGI (MDA-MB-435): > 100 µM
TGI (TK-10 renal): > 100 µM
TGI (PC-3 prostate): > 100 µM
TGI (UACC-62 melanoma): > 100 µM

C[C@]12CC[C@@H]3c4cc(OCC(F)(F)F)c(O)cc4CC[C@H]3[C@@H]1CC[C@@H]2O
TGI (SF-539 CNS): 7.27 µM
TGI (MDA-N): 1.29 µM
TGI (SW-620 colon): 9.03 µM
TGI (UACC-257 melanoma): 21.4 µM
TGI (MCF7 breast): 17.3 µM
TGI (RPMI-8226 leukemia): 23.1 µM
TGI (M14 melanoma): 16.8 µM
TGI (NCI-H522 lung): 3.88 µM
TGI (SR leukemia): 2.47 µM
TGI (RXF 393 renal): 8.68 µM
TGI (OVCAR-5 ovarian): 37.7 µM
TGI (LOX IMVI melanoma): 17.1 µM
TGI (NCI-H226 lung): 24.7 µM
TGI (MDA-MB-435): 1.1 µM
TGI (TK-10 renal): 40.4 µM
TGI (PC-3 prostate): 13.8 µM
TGI (UACC-62 melanoma): 17.3 µM

CCN(CC)CC1CCCCN1CC(=O)N1c2ccccc2C(=O)Nc2cccnc21 (stereo unspecified)
TGI (SF-539 CNS): > 100 µM
TGI (MDA-N): > 100 µM
TGI (SW-620 colon): > 100 µM
TGI (UACC-257 melanoma): 75.2 µM
TGI (MCF7 breast): > 100 µM
TGI (RPMI-8226 leukemia): 74.2 µM
TGI (M14 melanoma): > 100 µM
TGI (NCI-H522 lung): > 100 µM
TGI (SR leukemia): 58.1 µM
TGI (RXF 393 renal): > 100 µM
TGI (OVCAR-5 ovarian): > 100 µM
TGI (LOX IMVI melanoma): 57.2 µM
TGI (NCI-H226 lung): 98.8 µM
TGI (MDA-MB-435): > 100 µM
TGI (TK-10 renal): > 100 µM
TGI (PC-3 prostate): > 100 µM
TGI (UACC-62 melanoma): > 100 µM

O=S1(=O)OCCOS(=O)(=O)C1(F)Br
TGI (SF-539 CNS): > 100 µM
TGI (MDA-N): > 100 µM
TGI (SW-620 colon): > 100 µM
TGI (UACC-257 melanoma): > 100 µM
TGI (MCF7 breast): > 100 µM
TGI (RPMI-8226 leukemia): > 100 µM
TGI (M14 melanoma): > 100 µM
TGI (NCI-H522 lung): > 100 µM
TGI (SR leukemia): > 100 µM
TGI (RXF 393 renal): > 100 µM
TGI (OVCAR-5 ovarian): > 100 µM
TGI (LOX IMVI melanoma): > 100 µM
TGI (NCI-H226 lung): > 100 µM
TGI (MDA-MB-435): > 100 µM
TGI (TK-10 renal): > 100 µM
TGI (PC-3 prostate): > 100 µM
TGI (UACC-62 melanoma): > 100 µM

O=C(O)C12C3CCC(CC3)C1(C(=O)O)C1CCC2C1 (stereo unspecified)
TGI (SF-539 CNS): > 100 µM
TGI (MDA-N): > 100 µM
TGI (SW-620 colon): > 100 µM
TGI (UACC-257 melanoma): > 100 µM
TGI (MCF7 breast): > 100 µM
TGI (RPMI-8226 leukemia): > 100 µM
TGI (M14 melanoma): > 100 µM
TGI (NCI-H522 lung): > 100 µM
TGI (SR leukemia): > 100 µM
TGI (RXF 393 renal): > 100 µM
TGI (OVCAR-5 ovarian): > 100 µM
TGI (LOX IMVI melanoma): > 100 µM
TGI (NCI-H226 lung): > 100 µM
TGI (MDA-MB-435): > 100 µM
TGI (TK-10 renal): > 100 µM
TGI (PC-3 prostate): > 100 µM
TGI (UACC-62 melanoma): > 100 µM

CN(C)c1ccc(C(Cc2ccccc2)C2NC(=S)NC2=O)cc1 (stereo unspecified)
TGI (SF-539 CNS): > 100 µM
TGI (MDA-N): > 100 µM
TGI (SW-620 colon): > 100 µM
TGI (UACC-257 melanoma): > 100 µM
TGI (MCF7 breast): > 100 µM
TGI (RPMI-8226 leukemia): > 100 µM
TGI (M14 melanoma): > 100 µM
TGI (NCI-H522 lung): > 100 µM
TGI (SR leukemia): > 100 µM
TGI (RXF 393 renal): > 100 µM
TGI (OVCAR-5 ovarian): > 100 µM
TGI (LOX IMVI melanoma): > 100 µM
TGI (NCI-H226 lung): > 100 µM
TGI (MDA-MB-435): > 100 µM
TGI (TK-10 renal): > 100 µM
TGI (PC-3 prostate): > 100 µM
TGI (UACC-62 melanoma): > 100 µM

— PubChem BioAssay (NCI)
